Measured values from PMC9688344, “[^225Ac]Ac-SibuDAB for Targeted Alpha Therapy of Prostate Cancer: Preclinical Evaluation and Comparison with [^225Ac]Ac-PSMA-617” (Cancers, 2022).

Assays:
patients = tested on: patients; parameters: method as in PMID 33293081; conditions: clinical study; cited from earlier work
human serum albumin = experiment: Albumin binding, ultrafiltration assay in human blood plasma; format: in vitro ADME
Procedure: The logD values, cell uptake and internalization as well as PSMA-binding affinities (KD values) of [^225Ac]Ac-SibuDAB and [^225Ac]Ac-PSMA-617 (~50 kBq/nmol) were determined according to previously reported protocols (Supplementary Material: Sections S3–S5). Relative albumin-binding affinities were determined using an ultrafiltration assay according to an adapted version of a recently published protocol (Supplementary Material: Section S6).
Table S1. PSMA-binding affinity expressed as KD values determined for SibuDAB and PSMA-617 labeled with actinium-225 or lutetium-177.
Radioligand KD Value [nM] 95% Confidence interval n […]
Purpose: The affinity of [225Ac]Ac-SibuDAB to serum albumin in mouse and human blood plasma was assessed and compared to that of [177Lu]Lu-SibuDAB to determine the impact of the radionuclide on the albumin-binding properties of SibuDAB.
Methods: Relative albumin-binding affinities were determined using an ultrafiltra-tion assay according to a slightly adapted version of a published protocol. The concen-tration of mouse serum albumin (MSA) and human serum albumin (HSA) in samples of mouse and human plasma, respectively, was determined using a DRI-CHEM Analyzer (FUJIFILM, 4000i). […] The activity in the retained protein fraction (A bound), in the filtrate (Afiltrate) and in the filter unit (Afilter) were measured separately in a γ-counter (Perkin Elmer Wallac Wizard 1480). […]

[1] = tested on: PSMA-negative PC-3 flu tumors; experiment: Therapy study in PC-3 flu tumor-bearing mice; format: in vivo, BALB/c nude mice; conditions: 30 kBq
Procedure: Five days after subcutaneous inoculation of four groups of mice with either PC-3 PIP or PC-3 flu tumor cells on the right shoulder (4 × 10^6 cells in 100 μL HBSS), the mice were intravenously injected with either vehicle only (saline with 0.05% BSA, n = 6 and n = 4, respectively) or with 30 kBq [^225Ac]Ac-SibuDAB (1 nmol per mouse; n = 4 per group) diluted in vehicle (Table 1).
After administration of the radioligands, the mice were monitored over 8 weeks using the same measures as previously published by Umbricht et al.. The relative body mass was defined as [BMx/BM0], where BMx is the body mass in grams at a given Day x and BM0 is the body mass in grams at Day 0. The tumor dimension was determined by measuring the longest tumor axis (L) and its perpendicular axis (W) with a digital caliper. The tumor volume (V) was calculated according to the equation [V = 0.5 × (LW^2)]. The relative tumor volume was defined as [TVx/TV0], where TVx is the tumor volume in mm^3 at a given Day x, and TV0 is the tumor volume in mm^3 at Day 0. Endpoint criteria that required euthanasia were defined as (i) body mass loss of >15%, (ii) a tumor volume of >800 mm^3, (iii) a combination of body mass loss of >10% and a tumor volume of >700 mm^3 or, (iv) signs of unease and pain or a combination thereof using a scoring system as previously reported. The median survival of mice of each group was assessed with Kaplan–Meier curves. Potential early side effects for mice that survived until study end were determined based on blood chemistry and organ-to-brain mass ratios on Day 56 by comparison to values obtained from an additional group of therapy-naïve mice (n = 4) without tumors but of the same age (Supplementary Material: Section S9).

## O=C([O-])CN1CCN(CC(=O)[O-])CCN(CC(=O)NCC2CCC(C(=O)NC(Cc3ccc4ccccc4c3)C(=O)NCCCCC(NC(=O)NC(CCC(=O)O)C(=O)O)C(=O)O)CC2)CCN(CC(=O)[O-])CC1.[225Ac+3] (stereo not shown) [[^225Ac]Ac-PSMA-617]
patients
  patients with hematotoxicity up to Grade 3/4: about 30%

## CC(C)Cc1ccc(C(C)C(=O)NC(CCN)C(=O)NCCCCC(NC(=O)CN2CCN(CC(=O)[O-])CCN(CC(=O)[O-])CCN(CC(=O)[O-])CC2)C(=O)NCC2CCC(C(=O)NC(Cc3ccc4ccccc4c3)C(=O)NCCCCC(NC(=O)NC(CCC(=O)O)C(=O)O)C(=O)O)CC2)cc1.[225Ac+3] (stereo not shown) [[^225Ac]Ac-SibuDAB]
Human serum albumin
  relative albumin-binding affinity, higher than for [177Lu]Lu-SibuDAB: 1.4 fold
[1]
  Day of first endpoint: 18
  Day of last endpoint: 27
  Median Survival: 25 days
  Number of Mice Alive on Day 56: 0/4
  Tumor growth delay: not significantly delay the growth
